According to patent US20240336565A1, “SOLID FORMS OF OSANETANT” (Acer Therapeutics, Inc., priority 2021, published 2024):
Entries after “also recorded” stand apart in the source; their conditions may differ. Marks after values point to notes of the source that are not given here.

Assay: Salt screen: XRPD of isolated solids after drying at 40° C. and at 40° C./75% RH
Assay type: physicochemical
Settings: for XRPD after drying at 40° C./75% RH: after 40° C. drying, dried at 40° C./75% RH for about 24 h, label = form after 40° C. drying; for XRPD after drying at 40° C.: isolated solids dried at 40° C. for about 24 h, label = wet form
Procedure: To approximately 20 mg of amorphous lyophilized osanetant was added 0.3 mL of solvent for liquid counterion experiments. 0.2 mL of solvent was employed for solid counterion experiments. […] To the stirring mixture was then added 1.05 mol eq. of the appropriate counterion. Where solid counterions were used, the vial which contained the counterion was washed in to the osanetant containing vial with 0.1 mL of the appropriate solvent. Additional solvent was added where necessary. The experiments were thermally cycled as follows: heated from 25 to 40° C. at a rate of 0.1° C./min; 1 h at 40° C.; Cool to 5° C. at a rate of 0.1° C.; 1 h at 5° C.; 40° C. at a rate of 0.1° C./min; […] The crystallization experiments were thermally cycled overnight, then slurries were isolated by centrifugation. XRPD analysis was carried out on any isolated solids or gums. The XRPD plate, and the isolated solids, were then dried at 40° C. for about 24 h, and XRPD analysis was repeated. The XRPD plate was then dried at 40° C./75% RH for about 24 h and XRPD analysis was again repeated. All other samples were allowed to evaporated at ambient temperature and pressure.

Molecule | XRPD after drying at 40° C./75% RH | XRPD after drying at 40° C. | XRPD after drying at 40° C./75% RH (acetic acid)
CC(=O)N(C)C1(c2ccccc2)CCN(CCC[C@]2(c3ccc(Cl)c(Cl)c3)CCCN(C(=O)c3ccccc3)C2)CC1.O=P(O)(O)O [osanetant phosphoric acid Form 1, (R)-N-(1-(3-(1-benzoyl-3-(3,4-dichlorophenyl)piperidin-3-yl)propyl)-4-phenylpiperidin-4-yl)-N-methylacetamide phosphoric acid] | converted to Pattern 4; also recorded: Form 4 | Form 1 | –
CC(=O)N(C)C1(c2ccccc2)CCN(CCC[C@]2(c3ccc(Cl)c(Cl)c3)CCCN(C(=O)c3ccccc3)C2)CC1.Cc1ccc(S(=O)(=O)O)cc1 [osanetant p-toluenesulfonic acid Form 2, (R)-N-(1-(3-(1-benzoyl-3-(3,4-dichlorophenyl)piperidin-3-yl)propyl)-4-phenylpiperidin-4-yl)-N-methylacetamide p-toluenesulfonic acid] | converted to Pattern 1; also recorded: Form 1 | retained; also recorded: Form 2 | –
(R)-N-(1-(3-(1-benzoyl-3-(3,4-dichlorophenyl)piperidin-3-yl)propyl)-4-phenylpiperidin-4-yl)-N-methylacetamide naphthalene-2-sulfonic acid [osanetant naphthalene-2-sulfonic acid Form 1] | retained; also recorded: stable; also recorded: Form 1 | retained; also recorded: Form 1 | –
CC(=O)N(C)C1(c2ccccc2)CCN(CCC[C@]2(c3ccc(Cl)c(Cl)c3)CCCN(C(=O)c3ccccc3)C2)CC1.CS(=O)(=O)O [osanetant methanesulfonic acid Form 1, (R)-N-(1-(3-(1-benzoyl-3-(3,4-dichlorophenyl)piperidin-3-yl)propyl)-4-phenylpiperidin-4-yl)-N-methylacetamide methanesulfonic acid] | Amorphous | Form 1 | –
CC(=O)N(C)C1(c2ccccc2)CCN(CCC[C@]2(c3ccc(Cl)c(Cl)c3)CCCN(C(=O)c3ccccc3)C2)CC1.CC(=O)O [osanetant acetic acid Form 2, (R)-N-(1-(3-(1-benzoyl-3-(3,4-dichlorophenyl)piperidin-3-yl)propyl)-4-phenylpiperidin-4-yl)-N-methylacetamide acetic acid] | – | – | retained; also recorded: stable
CC(=O)N(C)C1(c2ccccc2)CCN(CCC[C@]2(c3ccc(Cl)c(Cl)c3)CCCN(C(=O)c3ccccc3)C2)CC1.CCS(=O)(=O)O [osanetant ethanesulfonic acid Form 2, (R)-N-(1-(3-(1-benzoyl-3-(3,4-dichlorophenyl)piperidin-3-yl)propyl)-4-phenylpiperidin-4-yl)-N-methylacetamide ethanesulfonic acid] | Amorphous | – | –
CC(=O)N(C)C1(c2ccccc2)CCN(CCC[C@]2(c3ccc(Cl)c(Cl)c3)CCCN(C(=O)c3ccccc3)C2)CC1.O=S(=O)(O)O [osanetant sulfuric acid Form 1, (R)-N-(1-(3-(1-benzoyl-3-(3,4-dichlorophenyl)piperidin-3-yl)propyl)-4-phenylpiperidin-4-yl)-N-methylacetamide sulfuric acid] | – | Form 2 | –
(R)-N-(1-(3-(1-benzoyl-3-(3,4-dichlorophenyl)piperidin-3-yl)propyl)-4-phenylpiperidin-4-yl)-N-methylacetamide naphthalene-2-sulfonic acid [osanetant naphthalene-2-sulfonic acid Form 4] | retained; also recorded: stable; also recorded: Form 4 | retained; also recorded: Form 4 | –
CC(=O)N(C)C1(c2ccccc2)CCN(CCC[C@]2(c3ccc(Cl)c(Cl)c3)CCCN(C(=O)c3ccccc3)C2)CC1.O=P(O)(O)O [osanetant phosphoric acid Form 2, (R)-N-(1-(3-(1-benzoyl-3-(3,4-dichlorophenyl)piperidin-3-yl)propyl)-4-phenylpiperidin-4-yl)-N-methylacetamide phosphoric acid] | converted to Pattern 4; also recorded: Form 4* | Form 2 | –
(R)-N-(1-(3-(1-benzoyl-3-(3,4-dichlorophenyl)piperidin-3-yl)propyl)-4-phenylpiperidin-4-yl)-N-methylacetamide naphthalene-2-sulfonic acid [osanetant naphthalene-2-sulfonic acid Form 2] | retained; also recorded: stable; also recorded: Form 2* | retained; also recorded: Form 2* | –
CC(=O)N(C)C1(c2ccccc2)CCN(CCC[C@]2(c3ccc(Cl)c(Cl)c3)CCCN(C(=O)c3ccccc3)C2)CC1.O=C(O)c1ccccc1 [osanetant benzoic acid Form 1, (R)-N-(1-(3-(1-benzoyl-3-(3,4-dichlorophenyl)piperidin-3-yl)propyl)-4-phenylpiperidin-4-yl)-N-methylacetamide benzoic acid] | no change in form; also recorded: stable | no change in form | –
CC(=O)N(C)C1(c2ccccc2)CCN(CCC[C@]2(c3ccc(Cl)c(Cl)c3)CCCN(C(=O)c3ccccc3)C2)CC1.O=C(O)/C=C/C(=O)O [osanetant fumaric acid Form 1] | crystallinity was lost | no change | –
CC(=O)N(C)C1(c2ccccc2)CCN(CCC[C@]2(c3ccc(Cl)c(Cl)c3)CCCN(C(=O)c3ccccc3)C2)CC1.CS(=O)(=O)O [osanetant methanesulfonic acid Form 2, (R)-N-(1-(3-(1-benzoyl-3-(3,4-dichlorophenyl)piperidin-3-yl)propyl)-4-phenylpiperidin-4-yl)-N-methylacetamide methanesulfonic acid] | Amorphous | Form 2 | –
CC(=O)N(C)C1(c2ccccc2)CCN(CCC[C@]2(c3ccc(Cl)c(Cl)c3)CCCN(C(=O)c3ccccc3)C2)CC1.O=S(=O)(O)O [osanetant sulfuric acid Form 2, (R)-N-(1-(3-(1-benzoyl-3-(3,4-dichlorophenyl)piperidin-3-yl)propyl)-4-phenylpiperidin-4-yl)-N-methylacetamide sulfuric acid] | Form 3* | – | –
CC(=O)N(C)C1(c2ccccc2)CCN(CCC[C@]2(c3ccc(Cl)c(Cl)c3)CCCN(C(=O)c3ccccc3)C2)CC1.O=C(O)C(O)C(O)C(=O)O [osanetant L-tartaric acid Form 1] | crystallinity was lost | no change | –
CC(=O)N(C)C1(c2ccccc2)CCN(CCC[C@]2(c3ccc(Cl)c(Cl)c3)CCCN(C(=O)c3ccccc3)C2)CC1.O=P(O)(O)O [osanetant phosphoric acid Form 3, (R)-N-(1-(3-(1-benzoyl-3-(3,4-dichlorophenyl)piperidin-3-yl)propyl)-4-phenylpiperidin-4-yl)-N-methylacetamide phosphoric acid] | retained; also recorded: stable; also recorded: Form 3 | Form 3 | –
CC(=O)N(C)C1(c2ccccc2)CCN(CCC[C@]2(c3ccc(Cl)c(Cl)c3)CCCN(C(=O)c3ccccc3)C2)CC1.CC(=O)O [osanetant acetic acid Form 1, (R)-N-(1-(3-(1-benzoyl-3-(3,4-dichlorophenyl)piperidin-3-yl)propyl)-4-phenylpiperidin-4-yl)-N-methylacetamide acetic acid] | – | changed form on drying at 40 °C to Pattern 2 | –
